Measured values as given in paper PMC3908613 (Bioscience Reports, 2014).

How the values were obtained:
BMDC [1] = assay: Cytokine production by LPS-stimulated BMDC (ELISA); format: cell-based, C57BL/6 mice; conditions: LPS 50 ng/ml, 18 h; for production of TNFα, IL6 and IL10: in the presence of both PD184352 (2 μM) and BIRB0796 (0.1 μM)
Protocol: DCs were generated from the bone marrow or the spleen of C57BL/6 mice as previously described. Briefly, bone marrow cells were cultured for 7 days at 37°C, 5% (v/v) CO2 in complete RPMI medium supplemented with 10 ng/ml recombinant granulocyte-macrophage colony-stimulating factor (GM-CSF; Peprotech). Spleen cells were cultured for 14 days at 37°C, 5% CO2 in complete RPMI containing 10 ng/ml GM-CSF and 1 ng/ml TGFβ (transforming growth factor-β; R&D Systems). NIH3T3 cells (European Cell Culture Collection) were cultured in DMEM (Dulbecco's modified Eagle's medium) supplemented with glutamine, penicillin, streptomycin and 10% (v/v) calf serum (Invitrogen). […] The amounts of TNFα (tumour necrosis factor α), IL6 (interleukin 6) and IL10 in the supernatant were measured using ELISA kits specific for each cytokine (TNFα, IL6; Peprotech, IL10; R&D Systems).

BMDC [2] = assay: FITC-dextran uptake (macropinocytosis) by BMDC; format: cell-based, C57BL/6 mice; conditions: LPS 50 ng/ml, FITC-dextran 1 mg/ml, increasing concentrations
Protocol: DCs were generated from the bone marrow or the spleen of C57BL/6 mice as previously described. Briefly, bone marrow cells were cultured for 7 days at 37°C, 5% (v/v) CO2 in complete RPMI medium supplemented with 10 ng/ml recombinant granulocyte–macrophage colony-stimulating factor (GM-CSF; Peprotech). Spleen cells were cultured for 14 days at 37°C, 5% CO2 in complete RPMI containing 10 ng/ml GM-CSF and 1 ng/ml TGFβ (transforming growth factor-β; R&D Systems). NIH3T3 cells (European Cell Culture Collection) were cultured in DMEM (Dulbecco's modified Eagle's medium) supplemented with glutamine, penicillin, streptomycin and 10% (v/v) calf serum (Invitrogen).
FITC-dextran uptake was measured as described. […] In some experiments, cells were pre-treated with 1 μM Akt-i (Merck) for 30 min. Cells were left unstimulated or were stimulated with 50 ng/ml LPS for 20 min at 37°C followed by the addition of 1 mg/ml FITC dextran (Invitrogen) for 10 min at 37°C. Cells were washed four times at 4°C in PBS supplemented with 2% (v/v) FCS (foetal calf serum) and then stained with APC (allophycocyanin)-labelled anti-CD11c antibody (BD biosciences). FITC dextran uptake was measured on an FACS Calibur (BD biosciences).

PLK1 = target: T1, PLK1 (Mus musculus, UniProt Q07832); assay: Desthiobiotin-ATP probe capture on streptavidin beads, Western blot; format: binding, C57BL/6 mice; conditions: 10 μM inhibitor, DC lysate
T1 construct: endogenous in cells; host or cells: mouse spleen-derived dendritic cells (SDC), lysate
Protocol: (§1) SDC were cultured for at least 14 days in RPMI (without arginine and lysine, custom-made by Biosera) containing 10% dialysed FCS (Hyclone) supplemented with 84 mg/l of L-arginine (Sigma) and 40 mg/l L-lysine (Sigma) for the ‘light’ medium or 84 mg/l of L-arginine ^13C6 or ^13C10 and 40 mg/l L-lysine ^13C6 (Cambridge Isotope Laboratory) for the ‘heavy’ medium. Equal numbers (2×10^7) of ‘light’ or ‘heavy’ labelled SDCs were incubated in RPMI containing 0.5% FCS for 3 h in 15 cm dishes. The cells were lysed in the lysis buffer provided in the kit (Pierce). […] Labelling with the desthiobiotin ATP probe, and precipitation with streptavidin beads were performed according to the manufacturer's instructions (Pierce kinase enrichment kit or ActivX™). Equal amount of streptavidin precipitates were separated by electrophoresis as described above and probed with antibodies against Rsk2, Lok (Bethyl), Slk (Bethyl), PLK1 (Calbiochem), p38, Erk2 and Mst1 (from Cell Signaling).

[3] = test system: panel of more than 200 kinases; set-up: method as in PMID 22056746; conditions: cited from earlier work
RSK = test system: RSK; set-up: method as in PMID 22056746; conditions: read-out: in vitro IC50 RSK; cited from earlier work
BMDC [4] = assay: Immunoblot of phosphorylated signalling proteins in stimulated BMDC; format: cell-based, C57BL/6 mice; conditions: 30 min
Protocol: BMDC (1.5×10^6 cells) were incubated in 6-well plates in RPMI supplemented with 0.3% FCS for 5 h at 37°C. […] NIH3T3 cells (2×10^4) were plated in 6-well plates for 48 h at 37°C. The cells were deprived of serum for 8 h in DMEM supplemented with 2 mg/ml BSA (Sigma) and then stimulated with 100 ng/ml EGF (epidermal growth factor; Peprotech) for 5 min at 37°C.
Cells were washed in cold PBS, lysed on ice for 10 min in lysis buffer (1% Triton X-100 containing 50 mM Tris–HCl (pH 7.5), 150 mM NaCl, 1 mM EGTA, 1 mM EDTA, 10 mM NaF, 1 mM sodium orthovanadate and 5 mM sodium pyrophosphate and protease inhibitors (Roche)) and centrifuged for 10 min at 20000 g at 4°C.
BMDC (5×10^6 cells) were stimulated as described above. Lysates were pre-cleared with protein G Sepharose beads (Roche) for 30 min at 4°C. Paxillin was immunoprecipitated with 2 μg of anti-paxillin (Millipore) or with anti-IgG antibodies (Santa Cruz Biotechnology) for 1 h at 4°C and then incubated with 15 μl protein G Sepharose beads for 1 h at 4°C. Beads were washed four times with lysis buffer and paxillin was eluted with NuPage sample buffer (Invitrogen). The immunoprecipitated proteins were separated by electrophoresis on a 10% (w/v) NuPage gel and transferred onto a nitrocellulose membrane. The membrane was probed with anti-phospho Ser250-paxilin (kind gift of Luc Sabourin, McMaster University, Canada) or anti-paxillin antibodies.

DC = assay: Actin cytoskeleton organisation in DC (confocal microscopy); format: cell-based, C57BL/6 mice; conditions: 4 μM D1870 or 2 μM BIX, 1h30 at 37°C
Protocol: 2 μMBIXfor1h30at37◦ C. Cells were ﬁxed in 4 % (v/v) paraformalde-hyde for 15 min, permeabilized with 0.1 % Triton for 5 min and stained with phalloidin-Alexa 555 (Invitrogen) and anti-vinculin antibody (Sigma) followed by goat anti-mouse Alexa 488 antibody (invitrogen). Cells were analysed on a Zeiss700 confocal microscope. V inculin (green) and phal-loidin (red). Error bar 10 μm. Images are representative of three inde- […]
© 2014 The Author(s) This is an Open Access ar ticle distributed under the terms of the Creative Commons Attribution Licence (CC-BY) (http://creativecommons.org/licenses/by/3.0/)c which permits unrestricted use, distribution and reproduction in any medium, provided the original work is properly cited.
(1 picture or pasted object on this page, not shown here)

p38 = assay: Desthiobiotin-ATP probe capture on streptavidin beads, Western blot; format: binding, C57BL/6 mice; conditions: 10 μM inhibitor, DC lysate
Protocol: as §1, with “'light'” for “‘light’”, “L-arginine ^13C6” left out, “L-lysine ^13C6” left out, “'heavy'” for “‘heavy’”, “ActivXTM).” for “ActivX™). Equal amount of streptavidin precipitates were separated by electrophoresis as described above and probed with antibodies against Rsk2, Lok (Bethyl), Slk (Bethyl), PLK1 (Calbiochem), p38, Erk2 and Mst1 (from Cell Signaling).”

Erk1/2 = target: T2, Erk1/2 (Mus musculus, UniProt P63085); assay: as above; format: binding, C57BL/6 mice; conditions: 10 μM inhibitor, DC lysate
T2 construct: recovered on streptavidin beads following desthiobiotin-ATP labelling of DC lysates including Rsk2, Erk1/2 and p38; endogenous in cells; host or cells: mouse spleen-derived dendritic cells (SDC), lysate
Protocol: as §1, with “'light'” for “‘light’”, “L-arginine ^13C6” left out, “L-lysine ^13C6” left out, “'heavy'” for “‘heavy’”, “ActivXTM).” for “ActivX™). Equal amount of streptavidin precipitates were separated by electrophoresis as described above and probed with antibodies against Rsk2, Lok (Bethyl), Slk (Bethyl), PLK1 (Calbiochem), p38, Erk2 and Mst1 (from Cell Signaling).”

[5] = increasing concentrations of inhibitor

T1 sequence (Q07832 whole entry): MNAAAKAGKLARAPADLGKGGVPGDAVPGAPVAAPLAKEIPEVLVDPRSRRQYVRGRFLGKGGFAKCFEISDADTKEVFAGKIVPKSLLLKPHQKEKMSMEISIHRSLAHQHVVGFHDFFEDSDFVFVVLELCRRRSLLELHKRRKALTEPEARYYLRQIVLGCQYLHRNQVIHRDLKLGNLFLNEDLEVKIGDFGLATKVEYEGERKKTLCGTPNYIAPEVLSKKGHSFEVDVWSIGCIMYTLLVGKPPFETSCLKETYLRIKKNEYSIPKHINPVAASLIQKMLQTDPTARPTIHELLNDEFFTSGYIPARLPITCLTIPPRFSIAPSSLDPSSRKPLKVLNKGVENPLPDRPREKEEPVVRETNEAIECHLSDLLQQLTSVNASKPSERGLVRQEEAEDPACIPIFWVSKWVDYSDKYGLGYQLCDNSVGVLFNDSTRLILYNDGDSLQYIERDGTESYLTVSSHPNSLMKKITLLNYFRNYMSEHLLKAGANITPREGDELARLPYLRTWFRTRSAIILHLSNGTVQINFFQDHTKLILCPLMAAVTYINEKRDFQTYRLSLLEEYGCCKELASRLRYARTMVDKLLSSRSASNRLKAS
T2 sequence (P63085 2-358): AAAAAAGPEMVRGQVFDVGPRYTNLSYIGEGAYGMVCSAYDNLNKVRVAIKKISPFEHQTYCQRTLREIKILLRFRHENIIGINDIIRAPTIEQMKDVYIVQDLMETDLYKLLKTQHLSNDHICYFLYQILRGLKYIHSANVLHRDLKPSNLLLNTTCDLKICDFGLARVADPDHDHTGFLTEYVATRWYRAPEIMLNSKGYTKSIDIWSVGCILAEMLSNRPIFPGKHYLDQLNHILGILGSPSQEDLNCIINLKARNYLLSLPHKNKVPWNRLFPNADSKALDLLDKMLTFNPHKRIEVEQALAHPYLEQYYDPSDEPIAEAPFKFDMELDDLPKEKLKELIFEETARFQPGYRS

| Compound | production of TNFα, IL6 and IL10 (BMDC [1]) | Block of TLR stimulated macropinocytosis (BMDC [2]) | Recovery of PLK1 on streptavidin beads (PLK1) | Higher levels of BIX at which a few other kinases were affected [3] | IC50 (RSK) | Erk1/2, p38 or JNK1/2 phosphorylation (BMDC [4]; LPS 50 ng/ml) | GSK3α/β phosphorylation (BMDC [4]; LPS 50 ng/ml) | PKB phosphorylation at Ser473 and Thr308 (BMDC [4]; LPS 50 ng/ml) | Phosphorylation of MSK1 and MK2 (BMDC [4]; LPS 50 ng/ml) | phosphorylation of IκBα (BMDC [4]; LPS 50 ng/ml) | phosphorylation of paxillin on Ser250 (BMDC [4]; LPS, paxillin immunoprecipitated) | morphological changes in resting DC (cell spreading, focal adhesion, loss of podosomes) (DC) | capture of p38 on streptavidin beads (p38) | capture of Erk1/2 on streptavidin beads (Erk1/2) | IL6 secretion (BMDC [1]; [5]) | IL10 secretion (BMDC [1]; [5]) | TNFα production (BMDC [1]; [5]) |
| --- | --- | --- | --- | --- | --- | --- | --- | --- | --- | --- | --- | --- | --- | --- | --- | --- | --- |
| Cc1ccc(-n2nc(C(C)(C)C)cc2NC(=O)Nc2ccc(OCCN3CCOCC3)c3ccccc23)cc1 [BIRB0796] | blocked |  |  |  |  |  |  |  |  |  |  |  |  |  |  |  |  |
| C[C@@H]1CCNC(=O)c2cc3ccc(C(=O)Nc4nc5ccccc5n4CCCN(C)C)cc3n21 [BIX, BIX02565] |  | ~ 20% | not affected | ~ 20 fold | 1 to 2 nM | Neither inhibitor had any effect | blocked | increased | not affected | neither D1870 nor BIX affected | little effect | not observed | not Erk1/2 or p38, was blocked | not Erk1/2 or p38, was blocked | only partially blocked | only partially blocked | partially blocked |
| O=C(NOCC1CC1)c1ccc(F)c(F)c1Nc1ccc(I)cc1Cl [PD184352] | blocked |  |  |  |  |  |  |  |  |  |  |  |  |  |  |  |  |
